Source: patent US10072017B2, “Compounds and methods for the treatment of cystic fibrosis” (Flatley Discovery Lab, LLC, priority 2015, dated 2018)

Target: T1, CFTR (Homo sapiens, UniProt P13569, DEL508-508)
T1 construct: Primary CF airway epithelial cells were obtained from the UNC Cystic Fibrosis Tissue Procurement and Cell Culture Core; host or cells: primary CF airway epithelial cells
Assay: Equivalent current assay in Primary CF airway epithelial cells (NAUC)
Format: cell-based
Conditions: 24 h, normalized to VX809 (3 μM) positive control; for Nauc @ 3 μM: 3 μM test compound; for Nauc @ 10 μM: 10 μM test compound
In short: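 Primary CF airway epithelia differentiated ≥4 weeks at air-liquid interface, treated basolaterally 24 h at 37 °C with test compounds in combination with VX809, 0.1% DMSO vehicle. Equivalent current recorded after 5 μM benzamil, 10 μM forskolin plus 1 μM VX770, then CFTR-172/bumetanide 20 μM; vehicle-subtracted AUC normalized to 3 μM VX809 (NAUC), median of n≥4, sigmoid fit for EC50.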

T1 sequence (P13569 with tags, fused parts or gaps DEL508-508): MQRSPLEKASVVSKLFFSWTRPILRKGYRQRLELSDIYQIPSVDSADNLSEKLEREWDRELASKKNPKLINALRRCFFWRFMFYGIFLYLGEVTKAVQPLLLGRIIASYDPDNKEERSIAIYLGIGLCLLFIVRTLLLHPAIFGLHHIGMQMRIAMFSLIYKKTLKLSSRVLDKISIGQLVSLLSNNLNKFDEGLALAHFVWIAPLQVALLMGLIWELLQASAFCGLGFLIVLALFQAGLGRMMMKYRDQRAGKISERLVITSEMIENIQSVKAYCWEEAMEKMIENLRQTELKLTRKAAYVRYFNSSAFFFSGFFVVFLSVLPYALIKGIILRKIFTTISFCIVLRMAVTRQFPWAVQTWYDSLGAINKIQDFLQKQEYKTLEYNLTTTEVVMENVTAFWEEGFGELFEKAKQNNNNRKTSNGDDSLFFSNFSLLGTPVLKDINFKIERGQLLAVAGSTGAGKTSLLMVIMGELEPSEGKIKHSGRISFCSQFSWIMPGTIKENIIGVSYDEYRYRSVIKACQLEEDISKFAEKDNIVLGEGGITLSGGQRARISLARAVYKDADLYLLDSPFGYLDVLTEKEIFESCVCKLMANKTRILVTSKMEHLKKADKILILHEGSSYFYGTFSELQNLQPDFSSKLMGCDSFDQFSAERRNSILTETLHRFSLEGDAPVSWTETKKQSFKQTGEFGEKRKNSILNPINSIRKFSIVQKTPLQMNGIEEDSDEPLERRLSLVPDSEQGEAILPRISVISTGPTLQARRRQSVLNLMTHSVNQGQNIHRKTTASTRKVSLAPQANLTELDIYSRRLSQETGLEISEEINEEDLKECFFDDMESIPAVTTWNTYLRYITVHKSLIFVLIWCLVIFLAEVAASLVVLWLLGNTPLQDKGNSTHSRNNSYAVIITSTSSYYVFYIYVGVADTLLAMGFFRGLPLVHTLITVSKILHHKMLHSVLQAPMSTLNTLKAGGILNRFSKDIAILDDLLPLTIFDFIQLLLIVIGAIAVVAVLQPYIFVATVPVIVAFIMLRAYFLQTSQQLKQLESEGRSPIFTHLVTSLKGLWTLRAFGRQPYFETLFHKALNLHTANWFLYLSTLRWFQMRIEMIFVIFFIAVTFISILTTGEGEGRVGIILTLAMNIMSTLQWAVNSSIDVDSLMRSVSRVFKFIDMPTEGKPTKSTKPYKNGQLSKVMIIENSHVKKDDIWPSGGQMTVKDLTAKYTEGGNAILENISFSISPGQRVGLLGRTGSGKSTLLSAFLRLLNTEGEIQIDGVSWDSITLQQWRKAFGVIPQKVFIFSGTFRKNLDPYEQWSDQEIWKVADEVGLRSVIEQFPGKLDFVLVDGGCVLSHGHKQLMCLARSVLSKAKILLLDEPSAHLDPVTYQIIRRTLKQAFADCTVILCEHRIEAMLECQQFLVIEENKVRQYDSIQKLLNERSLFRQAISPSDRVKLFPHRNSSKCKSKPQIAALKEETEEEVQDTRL

| SMILES | Nauc @ 3 μM | Nauc @ 10 μM |
| --- | --- | --- |
| O=C1C2C3CC(=C(F)F)CN3C3(C(=O)Nc4c(Cl)cc(Cl)cc43)C2C(=O)N1c1cccc(C(F)(F)F)c1 (stereo not drawn) [Example 126] | +++ (NAUC “+++” refers to an observed NAUC >170% of positive control) | +++ (NAUC “+++” refers to an observed NAUC >170% of positive control) |
| O=C1C2C3C[C@H](O)CN3C3(C(=O)Nc4c(Cl)cc(Cl)cc43)C2C(=O)N1c1cc(Cl)cc(Cl)c1 (single isomer, unassigned) [Example 46] | ++ (NAUC “++” refers to an observed NAUC 170-140% of positive control) | + (NAUC “+” refers to an observed NAUC <140% of positive control) |
| Cc1csc(N2C(=O)C3C4CCCN4C4(C(=O)Nc5c(Cl)cc(Cl)cc54)C3C2=O)n1 (stereo not drawn) [Example 101] | + (NAUC “+” refers to an observed NAUC <140% of positive control) | +++ (NAUC “+++” refers to an observed NAUC >170% of positive control) |
| COc1ccc(CC2NC3(C(=O)Nc4c(Cl)cc(Cl)cc43)C3C(=O)N(c4cc(Cl)cc(Cl)c4)C(=O)C23)cc1 (stereo not drawn) [Example 198] | + (NAUC “+” refers to an observed NAUC <140% of positive control) | ++ (NAUC “++” refers to an observed NAUC 170-140% of positive control) |
| O=C1C2C3CC(F)(F)CN3C3(C(=O)Nc4c(Cl)cc(Cl)cc43)C2C(=O)N1c1cc(Cl)cc(Cl)c1 (single isomer, unassigned) [Example 179] | +++ (NAUC “+++” refers to an observed NAUC >170% of positive control) | +++ (NAUC “+++” refers to an observed NAUC >170% of positive control) |
| CC(C)C1NC2(C(=O)Nc3c(Cl)cc(Cl)cc32)C2C(=O)N(c3cc(Cl)cc(Cl)c3)C(=O)C12 (single isomer, unassigned) [Example 242] | +++ (NAUC “+++” refers to an observed NAUC >170% of positive control) | +++ (NAUC “+++” refers to an observed NAUC >170% of positive control) |
| O=C1C2C3CCCN3C3(C(=O)Nc4ccc(Cl)cc43)C2C(=O)N1c1cc(Cl)cc(Cl)c1 (stereo not drawn) [Example 85] | ++ (NAUC “++” refers to an observed NAUC 170-140% of positive control) | +++ (NAUC “+++” refers to an observed NAUC >170% of positive control) |
| CC1(C)CC2C3C(=O)N(c4cc(Cl)cc(Cl)c4)C(=O)C3C3(C(=O)Nc4c(Cl)cc(Cl)cc43)N2C1 (single isomer, unassigned) [Example 119] | +++ (NAUC “+++” refers to an observed NAUC >170% of positive control) | +++ (NAUC “+++” refers to an observed NAUC >170% of positive control) |
| COc1cc(Cl)cc(N2C(=O)C3C4C[C@](C)(F)CN4C4(C(=O)Nc5c(Cl)cc(Cl)cc54)C3C2=O)c1 (stereo partly drawn) [Example 160] | + (NAUC “+” refers to an observed NAUC <140% of positive control) | ++ (NAUC “++” refers to an observed NAUC 170-140% of positive control) |
| COc1cc(Cl)cc(N2C(=O)C3C4C[C@H](Cl)CN4C4(C(=O)Nc5c(Cl)cc(Cl)cc54)C3C2=O)c1 (single isomer, unassigned) [Example 111] | +++ (NAUC “+++” refers to an observed NAUC >170% of positive control) | +++ (NAUC “+++” refers to an observed NAUC >170% of positive control) |
| COc1cc(Cl)cc(N2C(=O)C3C4C[C@](C)(O)CN4C4(C(=O)Nc5c(Cl)cc(Cl)cc54)C3C2=O)c1 (single isomer, unassigned) [Example 256] | ++ (NAUC “++” refers to an observed NAUC 170-140% of positive control) | +++ (NAUC “+++” refers to an observed NAUC >170% of positive control) |
| [2H]C12C(=O)N(c3cc(Cl)cc(Cl)c3)C(=O)C1([2H])C1(C(=O)Nc3c(Cl)cc(Cl)cc31)N1C[C@@H](O)CC12 (single isomer, unassigned) [Example 5, (7′S)-5,7-Dichloro-2′-(3,5-dichlorophenyl)-7′-hydroxy-3a′,6′,7′,8′,8a′,8b′-hexahydro-1′H-spiro[indoline-3,4′-pyrrolo[3,4-a]pyrrolizine]-1′,2,3′(2′H)-trione-3a′,8b′-d2] | +++ (NAUC “+++” refers to an observed NAUC >170% of positive control) | +++ (NAUC “+++” refers to an observed NAUC >170% of positive control) |
| COc1cc(Cl)cc(N2C(=O)C3C4C[C@](C)(F)CN4C4(C(=O)Nc5c(Cl)cc(Cl)cc54)C3C2=O)c1 (stereo partly drawn) [Example 205] | ++ (NAUC “++” refers to an observed NAUC 170-140% of positive control) | +++ (NAUC “+++” refers to an observed NAUC >170% of positive control) |
| O=C1C2CN(C3CCCC3)C3(C(=O)Nc4c(Cl)cc(Cl)cc43)C2C(=O)N1c1cc(Cl)cc(Cl)c1 (stereo not drawn) [Example 32] | ++ (NAUC “++” refers to an observed NAUC 170-140% of positive control) | +++ (NAUC “+++” refers to an observed NAUC >170% of positive control) |
| COc1c(Cl)cc(N2C(=O)C3C4C[C@H](F)CN4C4(C(=O)Nc5c(Cl)cc(Cl)cc54)C3C2=O)cc1Cl (single isomer, unassigned) [Example 118] | ++ (NAUC “++” refers to an observed NAUC 170-140% of positive control) | ++ (NAUC “++” refers to an observed NAUC 170-140% of positive control) |
| C[C@]1(O)CC2C3C(=O)N(c4cccc(F)n4)C(=O)C3C3(C(=O)Nc4c(Cl)cc(Cl)cc43)N2C1 (stereo partly drawn) [Example 233] | +++ (NAUC “+++” refers to an observed NAUC >170% of positive control) | ++ (NAUC “++” refers to an observed NAUC 170-140% of positive control) |
| COc1c(Cl)cc(N2C(=O)C3C4CC5(CC5)CN4C4(C(=O)Nc5c(Cl)cc(Cl)cc54)C3C2=O)cc1Cl (stereo not drawn) [Example 177] | ++ (NAUC “++” refers to an observed NAUC 170-140% of positive control) | +++ (NAUC “+++” refers to an observed NAUC >170% of positive control) |
| COc1c(Cl)cc(N2C(=O)C3C4C[C@H](Cl)CN4C4(C(=O)Nc5c(Cl)cc(Cl)cc54)C3C2=O)cc1Cl (stereo partly drawn) [Example 79] | +++ (NAUC “+++” refers to an observed NAUC >170% of positive control) | +++ (NAUC “+++” refers to an observed NAUC >170% of positive control) |
| O=C1C2C3CCCN3C3(C(=O)Nc4c(Cl)cc(Cl)cc43)C2C(=O)N1c1cccc(C(F)(F)F)c1 (single isomer, unassigned) [Example 24] | +++ (NAUC “+++” refers to an observed NAUC >170% of positive control) | +++ (NAUC “+++” refers to an observed NAUC >170% of positive control) |
| COc1c(Cl)cc(N2C(=O)C3C4CC(OC)(OC)CN4C4(C(=O)Nc5c(Cl)cc(Cl)cc54)C3C2=O)cc1Cl (stereo not drawn) [Example 168] | + (NAUC “+” refers to an observed NAUC <140% of positive control) | ++ (NAUC “++” refers to an observed NAUC 170-140% of positive control) |
| O=C1C2C3C[C@H](Cl)CN3C3(C(=O)Nc4c(Cl)cc(Cl)cc43)C2C(=O)N1c1cc(Cl)cc(Cl)c1 (single isomer, unassigned) [Example 86] | + (NAUC “+” refers to an observed NAUC <140% of positive control) | +++ (NAUC “+++” refers to an observed NAUC >170% of positive control) |
| O=C(O)c1cccc(C2C3C(=O)N(c4cc(Cl)cc(Cl)c4)C(=O)C3C3CCCN32)c1 (stereo not drawn) [Example 150] | + (NAUC “+” refers to an observed NAUC <140% of positive control) | ++ (NAUC “++” refers to an observed NAUC 170-140% of positive control) |
| COc1c(Cl)cc(N2C(=O)C3C4CCCN4C4(C(=O)Nc5c(Cl)cc(Cl)cc54)C3C2=O)cc1Cl (stereo not drawn) [Example 77] | +++ (NAUC “+++” refers to an observed NAUC >170% of positive control) | +++ (NAUC “+++” refers to an observed NAUC >170% of positive control) |
| O=C1C2C3CC(=C(F)F)CN3C3(C(=O)Nc4c(Cl)cc(Cl)cc43)C2C(=O)N1c1cc(C(F)(F)F)cc(C(F)(F)F)c1 (stereo not drawn) [Example 125] | +++ (NAUC “+++” refers to an observed NAUC >170% of positive control) | + (NAUC “+” refers to an observed NAUC <140% of positive control) |
| O=C1C2C3CC(=C(F)F)CN3C3(C(=O)Nc4c(Cl)cc(Cl)cc43)C2C(=O)N1c1cc(Br)cc(Br)c1 (stereo not drawn) [Example 123] | + (NAUC “+” refers to an observed NAUC <140% of positive control) | +++ (NAUC “+++” refers to an observed NAUC >170% of positive control) |
| O=C1C2C3C[C@H](F)CN3C3(C(=O)Nc4c(Cl)cc(Cl)cc43)C2C(=O)N1c1cc(O)cc(Cl)c1 (stereo partly drawn) [Example 80] | ++ (NAUC “++” refers to an observed NAUC 170-140% of positive control) | ++ (NAUC “++” refers to an observed NAUC 170-140% of positive control) |
| C[C@]1(F)CC2C3C(=O)N(c4cc(Cl)cc(Cl)c4)C(=O)C3C3(C(=O)Nc4c(Cl)cc(Cl)cc43)N2C1 (stereo partly drawn) [Example 10, (7′S)-5,7-dichloro-2′-(3,5-dichlorophenyl)-7′-fluoro-7′-methyl-3a′,6′,7′,8′,8a′,8b′-hexahydro-1′H-spiro[indoline-3,4′-pyrrolo[3,4-a]pyrrolizine]-1′,2,3′(2′H)-trione] | +++ (NAUC “+++” refers to an observed NAUC >170% of positive control) | +++ (NAUC “+++” refers to an observed NAUC >170% of positive control) |
